Publication PMC11062899, “De novo development of small cyclic peptides that are orally bioavailable” (Nature Chemical Biology, 2023)
“And” between values parts separate entries of the source, which are not always exact repeats. Equal values may be shown once. Read-outs that look alike come from different tables or passages of the source.

How the values were obtained:
human α-thrombin = human α-thrombin (Homo sapiens, UniProt P00734); test: Protease inhibition, Ki for human α-thrombin (fluorogenic substrate Z-Gly-Gly-Arg-AMC); assay type: biochemical; settings: for Human alpha thrombin inhibition, slope normalized to DMSO: replicates R1-R3
Summary of the method: (§1)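 Ki values come from Cheng–Prusoff correction of IC50, itself fitted by four-parameter logistic regression of activity versus a no-peptide control. Assays used 2 nM human or 3 nM rat thrombin, 50 μM Z-Gly-Gly-Arg-AMC, 30 min kinetic fluorescence at 25 °C.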

rat α-thrombin = target: T1, rat α-thrombin (Rattus norvegicus, UniProt P18292); test: Protease inhibition, Ki for rat α-thrombin (fluorogenic substrate Z-Gly-Gly-Arg-AMC); assay type: biochemical; settings: for Rat alpha thrombin inhibition, slope normalized to DMSO: replicates R1-R3
T1 construct: rat α-thrombin (Molecular Innovations) were used at final concentrations of 2 nM and 3 nM; purchased Molecular Innovations
Summary of the method: as §1

[1] = Passive artificial membrane permeability (PAMPA);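 as to Permeability% Average: top well sample relative to theoretical equilibrium sample by TIC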
Method: The plate system consisted of a 96-well microwell plate (donor wells) and a 96-well insert containing a PVDF membrane coated with tri-layers of phospholipids (acceptor wells). Permeability was measured from the bottom plate (donor wells) to the top insert (acceptor wells). Cyclic peptide or reference compound solutions were prepared at a concentration of 50 μM in PBS buffer (pH 7.4) containing 5% DMSO, and 300 μl of the resulting solutions was placed into the donor wells of the PAMPA plate. Acceptor wells were prepared by adding 200 μl of PBS buffer (pH 7.4) containing 5% DMSO. The insert was stacked onto the donor plate, and the system was covered with a lid to avoid evaporation. […] Additionally, 3:2 dilutions of the 50 μM cyclic peptide stocks were prepared in PBS buffer (pH 7.4) containing 5% DMSO to yield a sample corresponding to the theoretical equilibrium between donor and acceptor wells. The samples were run on the LC–MS to measure the cyclic peptide concentration representing maximum permeability. Permeability percent was calculated using equation (4) below.4 Permeability%=PeptideAcceptor/PeptideEquilibrated×100 where [PeptideAcceptor] represents the AUC measured on the LC–MS for the acceptor wells, and [PeptideEquilibrated] represents the AUC measured for the samples diluted to the theoretical equilibrium. Detection limit for the assay was typically at 1% permeability.
Papp values were calculated using equation (5).5 Papp=VD×VA/VD+VA×A×t×−ln1−PeptideAcceptor/PeptideEquilibrated where VD and VA are the volumes of donor and acceptor wells, respectively; A is the area of the membrane; and t is the incubation time.

[2] = peptide concentration 1.00E+02 uM
[3] = peptide concentration 1.19E-05 uM
[4] = peptide concentration 1.22E-02 uM
[5] = peptide concentration 1.25E+01 uM
[6] = peptide concentration 1.53E-03 uM
[7] = peptide concentration 1.56E+00 uM
[8] = peptide concentration 1.91E-04 uM
[9] = peptide concentration 1.95E-01 uM
[10] = peptide concentration 2.38E-05 uM
[11] = peptide concentration 2.44E-02 uM
[12] = peptide concentration 2.50E+01 uM
[13] = peptide concentration 3.05E-03 uM
[14] = peptide concentration 3.12E+00 uM
[15] = peptide concentration 3.81E-04 uM
[16] = peptide concentration 3.91E-01 uM
[17] = peptide concentration 4.77E-05 uM
[18] = peptide concentration 4.88E-02 uM
[19] = peptide concentration 5.00E+01 uM
[20] = peptide concentration 6.10E-03 uM
[21] = peptide concentration 6.25E+00 uM
[22] = peptide concentration 7.63E-04 uM
[23] = peptide concentration 7.81E-01 uM
[24] = peptide concentration 9.54E-05 uM
[25] = peptide concentration 9.77E-02 uM

O=C1C[C@H]2CCCN2C(=O)[C@H](Cc2ccccc2)NC(=O)[C@@H](NC(=O)c2ccc(Cl)s2)CCCC=CCCCN1 [compound 42]
Ki (human α-thrombin; average of R1-R3, read-out: Human alpha thrombin inhibition, Ki Average): 321 nM | Human alpha thrombin inhibition, slope normalized to DMSO (human α-thrombin; [2]): 8.6 and 8.9 and 9.5 | Human alpha thrombin inhibition, slope normalized to DMSO (human α-thrombin; [3]): 104.7 and 99.7 and 99.1 | Human alpha thrombin inhibition, slope normalized to DMSO (human α-thrombin; [4]): 46.3 and 101.7 and 85.0 | Human alpha thrombin inhibition, slope normalized to DMSO (human α-thrombin; [5]): 5.3 and 13.8 and 11.9 | Human alpha thrombin inhibition, slope normalized to DMSO (human α-thrombin; [6]): 49.9 and 105.6 and 101.7 | Human alpha thrombin inhibition, slope normalized to DMSO (human α-thrombin; [7]): 36.6 and 35.2 and 35.3 | Human alpha thrombin inhibition, slope normalized to DMSO (human α-thrombin; [8]): 98.2 and 106.9 and 104.5 | Human alpha thrombin inhibition, slope normalized to DMSO (human α-thrombin; [9]): 49.0 and 78.5 and 77.7 | Human alpha thrombin inhibition, slope normalized to DMSO (human α-thrombin; [10]): 110.3 and 103.8 and 102.6 | Human alpha thrombin inhibition, slope normalized to DMSO (human α-thrombin; [11]): 87.9 and 84.7 and 102.8 | Human alpha thrombin inhibition, slope normalized to DMSO (human α-thrombin; [12]): 10.1 and 9.5 and 12.3 | Human alpha thrombin inhibition, slope normalized to DMSO (human α-thrombin; [13]): 53.7 and 99.4 and 62.7 | Human alpha thrombin inhibition, slope normalized to DMSO (human α-thrombin; [14]): 11.6 and 29.8 and 12.4 | Human alpha thrombin inhibition, slope normalized to DMSO (human α-thrombin; [15]): 68.4 and 103.9 and 101.2 | Human alpha thrombin inhibition, slope normalized to DMSO (human α-thrombin; [16]): 64.4 and 65.7 and 57.7 | Human alpha thrombin inhibition, slope normalized to DMSO (human α-thrombin; [17]): 106.6 and 102.8 and 103.1 | Human alpha thrombin inhibition, slope normalized to DMSO (human α-thrombin; [18]): 55.2 and 93.5 and 76.8 | Human alpha thrombin inhibition, slope normalized to DMSO (human α-thrombin; [19]): 11.6 (2×) and 7.0 | Human alpha thrombin inhibition, slope normalized to DMSO (human α-thrombin; [20]): 92.4 and 103.3 and 95.4 | Human alpha thrombin inhibition, slope normalized to DMSO (human α-thrombin; [21]): 8.5 and 19.8 and 17.9 | Human alpha thrombin inhibition, slope normalized to DMSO (human α-thrombin; [22]): 104.5 and 110.5 and 71.2 | Human alpha thrombin inhibition, slope normalized to DMSO (human α-thrombin; [23]): 53.0 and 40.3 and 48.0 | Human alpha thrombin inhibition, slope normalized to DMSO (human α-thrombin; [24]): 104.5 and 106.6 and 99.3 | Human alpha thrombin inhibition, slope normalized to DMSO (human α-thrombin; [25]): 84.9 and 80.9 and 75.3 | IC50 (human α-thrombin; single replicates R1-R3, read-out: Human alpha thrombin inhibition, IC50): 141 nM and 513 nM and 595 nM | Ki (human α-thrombin; single replicates R1-R3, read-out: Human alpha thrombin inhibition, Ki): 108 nM (2×) and 396 nM (2×) and 459 nM (2×) | Ki (rat α-thrombin; average of R1-R3, read-out: Rat alpha thrombin inhibition, Ki Average): 104 nM | Rat alpha thrombin inhibition, slope normalized to DMSO (rat α-thrombin; [2]): 11.1 and 8.8 and 6.3 | Rat alpha thrombin inhibition, slope normalized to DMSO (rat α-thrombin; [3]): 97.9 and 89.1 and 104.7 | Rat alpha thrombin inhibition, slope normalized to DMSO (rat α-thrombin; [4]): 95.5 and 96.6 and 90.7 | Rat alpha thrombin inhibition, slope normalized to DMSO (rat α-thrombin; [5]): 7.6 and 6.9 and 7.3 | Rat alpha thrombin inhibition, slope normalized to DMSO (rat α-thrombin; [6]): 101.7 and 97.0 and 102.3 | Rat alpha thrombin inhibition, slope normalized to DMSO (rat α-thrombin; [7]): 15.7 and 15.6 and 13.6 | Rat alpha thrombin inhibition, slope normalized to DMSO (rat α-thrombin; [8]): 90.1 and 101.9 and 101.4 | Rat alpha thrombin inhibition, slope normalized to DMSO (rat α-thrombin; [9]): 54.3 and 44.0 and 44.2 | Rat alpha thrombin inhibition, slope normalized to DMSO (rat α-thrombin; [10]): 98.8 and 105.1 and 93.8 | Rat alpha thrombin inhibition, slope normalized to DMSO (rat α-thrombin; [11]): 96.7 and 81.8 and 91.8 | Rat alpha thrombin inhibition, slope normalized to DMSO (rat α-thrombin; [12]): 6.5 and 0.4 and 5.6 | Rat alpha thrombin inhibition, slope normalized to DMSO (rat α-thrombin; [13]): 104.2 and 96.1 and 93.1 | Rat alpha thrombin inhibition, slope normalized to DMSO (rat α-thrombin; [14]): 7.9 and 9.5 and 5.7 | Rat alpha thrombin inhibition, slope normalized to DMSO (rat α-thrombin; [15]): 106.7 and 100.9 and 91.0 | Rat alpha thrombin inhibition, slope normalized to DMSO (rat α-thrombin; [16]): 38.3 and 34.0 and 35.5 | Rat alpha thrombin inhibition, slope normalized to DMSO (rat α-thrombin; [17]): 98.1 and 100.4 and 100.7 | Rat alpha thrombin inhibition, slope normalized to DMSO (rat α-thrombin; [18]): 84.8 and 84.4 and 72.7 | Rat alpha thrombin inhibition, slope normalized to DMSO (rat α-thrombin; [19]): 0.8 and 7.3 and 2.5 | Rat alpha thrombin inhibition, slope normalized to DMSO (rat α-thrombin; [20]): 104.0 and 93.5 and 94.8 | Rat alpha thrombin inhibition, slope normalized to DMSO (rat α-thrombin; [21]): 7.5 and 8.8 and 7.9 | Rat alpha thrombin inhibition, slope normalized to DMSO (rat α-thrombin; [22]): 97.9 and 91.4 and 101.5 | Rat alpha thrombin inhibition, slope normalized to DMSO (rat α-thrombin; [23]): 26.2 and 23.7 and 23.1 | Rat alpha thrombin inhibition, slope normalized to DMSO (rat α-thrombin; [24]): 96.9 and 98.1 and 96.1 | Rat alpha thrombin inhibition, slope normalized to DMSO (rat α-thrombin; [25]): 69.5 and 66.8 | IC50 (rat α-thrombin; single replicates R1-R3, read-out: Rat alpha thrombin inhibition, IC50): 215 nM and 179 nM and 168 nM | Ki (rat α-thrombin; single replicates R1-R3, read-out: Rat alpha thrombin inhibition, Ki): 119 nM (2×) and 98.9 nM (2×) and 92.9 nM (2×) | PAMPA permeability: % permeability ([1]; 50 μM, 12–18 h, acceptor concentration relative to equilibrium): 70 ± 22% | Permeability% (single replicates R1–R3) ([1]; 50 μM, 13 h (Fig. 5d)): 83.98% and 44.59% and 81.97% | Permeability% Average ([1]; 50 μM, 13 h (Fig. 5d)): 70.2% | Papp at 50 μM ([1]; PAMPA, pH 7.4): 11.2 ×10⁻⁶ cm/s
